Test results: patent US20050009886A1, “1,4-Dihydropyridine derivative with a guaiacoxypropanolamine and/or phenoxypropanolamine moiety” (priority 1998, published 2005)

Legend:
[1] = Heart rate and blood pressure in living rat; format: in vivo, Wistar rats; settings: 1 mg/kg via femoral vein, anaesthetized rat
Text: Male Wistar rats, weighing 200˜300 g were abdominal anaesthetized with pentobarbital sodium. Tracheal was cannulated to maintain normal respiration. Polyethylene tube was inserted into the left femoral vein to facilitate drug administration. A 3-way stopcock was used, with one end connected to a syringe for drug injection, while the other end was connected to the syringe filled with physiological saline. The latter was used to prevent residual drugs in the polyethylene tube after injection, which would affect experimental accuracy.
The right femoral artery was also inserted with polyethylene, and a 3-way stopcock was used too, where one end was connected to heparin solution to prevent embolism. The other end was connected to a Disposable Diaphragm Dome, TA1019, and linked to a transducer. Through an amplifier, a recorder recorded the overall and average arterial pressure; heart rate to evaluate the effect of drug on blood pressure and heart rate.

[2] = target: T1, β-adrenoreceptor (β1) (Rattus norvegicus, UniProt P18090); experiment: Isolated right atrium, L-isoproterenol-induced heart rate increase (pA2); design: species or system Wistar rat; settings: for β1/β2: from pA2 difference right atrium vs tracheal; for β1 Right Atrium (Slope): slope of Schild regression; for β1 Value of pA2 Right Atrium: vs L-isoproterenol, Schild plot
T1 construct: The right and left atria were then separated; from tissue; host or cells: isolated rat right atrium (spontaneously beating) and left atrium (electrically paced)
T1 sequence (P18090 whole entry): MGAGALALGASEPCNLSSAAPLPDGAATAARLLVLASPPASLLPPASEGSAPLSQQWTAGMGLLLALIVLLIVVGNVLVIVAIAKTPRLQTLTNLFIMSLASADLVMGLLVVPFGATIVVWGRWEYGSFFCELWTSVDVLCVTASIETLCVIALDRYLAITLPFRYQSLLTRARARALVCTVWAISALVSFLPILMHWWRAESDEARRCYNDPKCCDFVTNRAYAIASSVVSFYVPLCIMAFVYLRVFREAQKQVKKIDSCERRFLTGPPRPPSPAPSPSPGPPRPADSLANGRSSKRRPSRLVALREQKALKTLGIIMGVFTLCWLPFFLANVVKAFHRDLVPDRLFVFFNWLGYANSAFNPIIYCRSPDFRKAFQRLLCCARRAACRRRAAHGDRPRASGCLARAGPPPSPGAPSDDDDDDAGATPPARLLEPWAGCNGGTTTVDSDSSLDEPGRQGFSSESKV
Procedure: The right and left atria were then separated. The spontaneously-beating right atria was clipped on both end by heart shaped clips, where one end was fixed at the bottom of 10 ml of tissue bath made of physiological saline solution, and temperature maintained at 37° C. The other end of the atria was connected to a force transducer, and isometric contractions and beating rate of the right atria were recorded by COULBOURN AT-High-Speed VideoFigure. After the samples were given 250 mg of contractions and reach equilibrium the following experiments were carried out: • (a) β-adrenoceptor blocking action
Cumulative administration interval was when the previous concentration reached its greatest effect, the next concentration would be immediately given.
The equation is as follows: pA2=−Log KB Log(DRADJ−1)=nlog[B]−LogKB [formula]
[B] Test compound concentration in moles • KB: equilibrium dissociation constant • n: value of slope DR: test EC50 divided by control EC50 • CF: EC50 of second or third control groups divided by EC50 of first control group (c) Effect of Compound on the Increase of Spontaneous Beating in Right Atrium Caused by CaCl2

[3] = target: T1, β-adrenoreceptor (β1); experiment: Isolated left atrium, L-isoproterenol-induced contractility increase (pA2); design: species or system Wistar rat; settings: for β1 Left Atrium (Slope): slope of Schild regression; for β1 Value of pA2 Left Atrium: vs L-isoproterenol, electrically stimulated
Procedure: The inspontaneously-beating left atrial tissue was obtained from rat's isolated right atrial tissue experiments. […] The contraction rate was 1 Hz and the resting tension 0.5 gm. After 60 minutes of equilibration, the following experiments were performed:
(a) Completion of cumulative concentration-response curve: similar to experimental method on isolated right atrium;
(b) Calculation of pA2 value: similar to calculation method on isolated right atrium.

[4] = target: T2, β2 (Cavia porcellus, UniProt Q8K4Z4); experiment: Guinea pig's isolated tracheal, L-isoproterenol relaxation of carbachol contraction (pA2); settings: for β2 Tracheal (slope): slope of Schild regression; for β2 Value of pA2 Tracheal: vs L-isoproterenol, carbachol 10^−6 M contraction
T2 construct: a portion of tracheal approximately 4 cm long was removed; from tissue; host or cells: isolated trachea of reserpine-pretreated guinea pigs
T2 sequence (Q8K4Z4 whole entry): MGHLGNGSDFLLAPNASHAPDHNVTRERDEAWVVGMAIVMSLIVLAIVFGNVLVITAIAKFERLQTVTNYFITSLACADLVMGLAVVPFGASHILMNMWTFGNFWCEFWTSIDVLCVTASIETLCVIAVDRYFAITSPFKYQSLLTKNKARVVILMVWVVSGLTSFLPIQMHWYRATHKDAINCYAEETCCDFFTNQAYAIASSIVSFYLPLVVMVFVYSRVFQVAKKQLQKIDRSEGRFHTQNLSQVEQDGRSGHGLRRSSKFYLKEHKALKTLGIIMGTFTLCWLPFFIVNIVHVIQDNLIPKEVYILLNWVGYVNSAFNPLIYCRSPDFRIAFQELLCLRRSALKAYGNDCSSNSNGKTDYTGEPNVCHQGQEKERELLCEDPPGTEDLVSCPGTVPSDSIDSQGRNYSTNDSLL
Procedure: Guinea pigs of weight between 300˜500 gm were used. […] After the guinea pigs were sacrificed, a slit was made along the neck, and a portion of tracheal approximately 4 cm long was removed. […] The two ends of the tracheal were clamped with frog-heart shaped clamps, one end was fixed at the bottom of tissue bath filled with 20 ml of Kreb's solution, maintained at 37° C., while the other end was connected to a force transducer. Through a COULBOURN AT-High-Speed Videograph, long isometric contractions were recorded. After the sample was given 1.5 gm of tension and equilibrated, the following experiments were performed:
Then the tracheal was repeatedly washed with Kreb's solution for 20 minutes and 10−6 M of carbochol was added to cause contraction in the guinea pig's tracheal. […] This is the test group.
(b) Calculation of pA2: similar to the calculation method for isolated right atrium experiment.

[5] = test system: thoracic aorta; experiment: Isolated thoracic aorta contraction caused by 75 mM KCl; design: species or system Wistar rat; settings: 10^−8M; 75 mM KCl contraction
Procedure: After sacrificing Wistar rat of weight between 300-500 gm, the thoracic aorta was immediately removed and placed in cold Kreb's solution. The fatty connecting tissue surrounding the vessel wall was removed and the thoracic aorta was cut into rings of length 5 mm. The two ends of each ring was pieced and fixed with “Z” shaped platinum wires. […] The sample was given 1 gm of tension and equilibrated for 60 minutes before the following experiments were carried out:
After thoracic aorta had reached equilibrium in the tissue trough, the normal Kreb's solution in the trough was replaced with 75 mM KCl solution to induce vasoconstriction. When the results had been recorded for at least 35 minutes, the aorta was repeatedly rinsed with normal Kreb's solution. After the aorta had re-equilibrated and at least rested for 60 minutes, different concentrations (10^−8, 10^−7, 10^−6, and 10^−5M) of compound 1 were separately added. 30 minutes later, 75 mM KCl was added again to induce vasoconstriction. This method was used to compare the differences in contraction induced by 75 mM KCl on thoracic aorta pre-treated and non-treated with compound 1.
0.1 μM of BayK8644 was first added into the tissue trough. 10 minutes later, 75 mM of concentrated Potassium solution was added to induce thoracic aorta contraction. When vasoconstriction had reached stability, different concentrations of (10^−8, 10^−7, 10^−6, and 10^−5M) compound 1 were separately added. The effects of aorta contraction induced by concentrated Potassium solution were observed.

[6] = test system: Calcium; experiment: Calcium antagonism (pKCa^−1, Table 2)
[7] = test system: isolated atria; experiment: Direct effect (intrinsic sympathomimetic activity) on reserpine pretreated isolated atria; design: species or system Wistar rat; settings: cumulative administration, reserpine pretreated
Procedure: Wistar rats of weight between 200˜300 gm were used. 18˜24 hours before the experiment, 5 mg/kg of reserpine was injected via abdominal cavity to remove all endogenous catecholamines. Prior experiment, Wistar rats were sacrificed, the heart was immediately removed and placed in Kreb's solution aerated with air mixture and maintained at room temperature. The right and left atria were carefully separated.

SMILES: CCOC(=O)C1=C(C)NC(C)=C(C(=O)OCC)C1c1cc([N+](=O)[O-])ccc1OCC(O)CNC(C)(C)C (centres unmarked) [Compound 8]
- Lowering of Blood Pressure [1]: 80 ± 3 mmHg
- Reduction of Heart Rate [1]: 40 ± 4 beats/min
- Ratio of β1 and Calcium Antagonism [2]: 0.08
- β1/β2 [2]: 1.29
- β1 Right Atrium (Slope) [2]: (0.83 ± 0.21)
- β1 Value of pA2 Right Atrium [2]: 7.89 ± 0.23
- β1 Left Atrium (Slope) [3]: (0.89 ± 0.12)
- β1 Value of pA2 Left Atrium [3]: 7.03 ± 0.18
- β2 Tracheal (slope) [4]: (0.92 ± 0.17)
- β2 Value of pA2 Tracheal [4]: 7.27 ± 0.19
- Aorta Relaxation [5]: 43 ± 3%
- Calcium Antagonism PKCa^−1 [6]: 8.09 ± 0.13

SMILES: CCCCNCC(O)COc1ccc(Cl)cc1C1C(C(=O)OCC)=C(C)NC(C)=C1C(=O)OCC (centres unmarked) [Compound 5]
- Lowering of Blood Pressure [1]: 74 ± 4 mmHg
- Reduction of Heart Rate [1]: 32 ± 4 beats/min
- Ratio of β1 and Calcium Antagonism [2]: 0.10
- β1/β2 [2]: 1.33
- β1 Right Atrium (Slope) [2]: (0.91 ± 0.23)
- β1 Value of pA2 Right Atrium [2]: 7.37 ± 0.27
- β1 Left Atrium (Slope) [3]: (0.93 ± 0.19)
- β1 Value of pA2 Left Atrium [3]: 6.91 ± 0.09
- β2 Tracheal (slope) [4]: (0.91 ± 0.21)
- β2 Value of pA2 Tracheal [4]: 7.24 ± 0.12
- Aorta Relaxation [5]: 33 ± 2%
- Calcium Antagonism PKCa^−1 [6]: 7.89 ± 0.34

SMILES: CC(C)NC[C@H](O)c1ccc(O)c(O)c1 [L-isoproterenol]
- direct effect on right atrium beating rate and left atrium isometric contractions [7]: dose-dependently increase the right atrium beating rate and left atrium isometric contractions

SMILES: CCOC(=O)C1=C(C)NC(C)=C(C(=O)OCC)C1c1ccc(OCC(O)CNCCOc2ccccc2OC)c(OC)c1 (centres unmarked) [Compound 3, 4-{{N-{4-[2-hydroxy-3-(2-methoxy-1-oxyethyl-aminobenzene)propoxy]-3-methoxy)phenyl}}-2,6-dimethyl-3,5-dicarboethoxy-1,4-dihydropyridine]
- Lowering of Blood Pressure [1]: 78 ± 5 mmHg
- Reduction of Heart Rate [1]: 37 ± 5 beats/min
- Ratio of β1 and Calcium Antagonism [2]: 0.08
- β1/β2 [2]: 1.26
- β1 Right Atrium (Slope) [2]: (0.92 ± 0.27)
- β1 Value of pA2 Right Atrium [2]: 7.47 ± 0.38
- β1 Left Atrium (Slope) [3]: (0.89 ± 0.03)
- β1 Value of pA2 Left Atrium [3]: 6.97 ± 0.12
- β2 Tracheal (slope) [4]: (0.92 ± 0.23)
- β2 Value of pA2 Tracheal [4]: 7.31 ± 0.23
- Aorta Relaxation [5]: 41 ± 2%
- Calcium Antagonism PKCa^−1 [6]: 7.96 ± 0.27

SMILES: COC(=O)C1=C(C)NC(C)=C(C(=O)OC)C1c1ccc(OCC(O)CNCCOc2ccccc2OC)c(OC)c1 (centres unmarked) [Compound 2, 4-{{N-{4-[2-hydroxy-3-(2-methoxy-1-oxyethyl-aminobenzene)propoxy]-3-methoxy}phenyl}}-2,6-dimethyl-3,5-dicarbo-methoxy-1,4-dihydropyridine]
- Lowering of Blood Pressure [1]: 75 ± 2 mmHg
- Reduction of Heart Rate [1]: 35 ± 4 beats/min
- Ratio of β1 and Calcium Antagonism [2]: 0.09
- β1/β2 [2]: 1.28
- β1 Right Atrium (Slope) [2]: (0.88 ± 0.09)
- β1 Value of pA2 Right Atrium [2]: 7.36 ± 0.65
- β1 Left Atrium (Slope) [3]: (0.91 ± 0.21)
- β1 Value of pA2 Left Atrium [3]: 6.93 ± 0.34
- β2 Tracheal (slope) [4]: (0.88 ± 0.12)
- β2 Value of pA2 Tracheal [4]: 7.20 ± 0.45
- Aorta Relaxation [5]: 40 ± 4%
- Calcium Antagonism PKCa^−1 [6]: 7.91 ± 0.35

SMILES: CC(C)NCC(O)COc1cccc2ccccc12 (centres unmarked) [Propranolol]
- direct effect on right atrium beating rate and left atrium isometric contractions [7]: could retard the beating rate and isometric contractions
